Reference: US10537650B2, “Molecular probes for multimodality imaging and tracking of stem cells” (University of Massachusetts, priority 2012, dated 2020)
Values joined by “and” are separate entries in the source; they are usually repeats but may differ in a detail not shown here. Identical values can stand only once.

What was measured:
[1] = test system: TC1 wild type mES cells; assay: Culture and fluorescence microscopy of MTTI-157 labeled TC1 mES cells; assay type: cell-based, mouse; conditions: through Day 4, 2 μM and 10 μM dye
Protocol: The MTTI-157 labeled mES cells were seeded into 12-well plates with about 0.5×10^6 cells per well to grow under normal culture conditions to evaluate cell viability, differentiation, fluorescence dye stability, and dye partitioning to daughter cells over time. Unlabeled normal TC1 wild type mES cells were used as control. The cell associated fluorescence was detected from the plates on an Olympus IX 70 Inverted Light Microscope (Olympus America, Inc., NY) using a Cy5 filter on Days 0, 1 and 4 after seeding.
After dye labeling, the trypan blue staining was performed to detect cell viability. […] The fluorescence is shown in red and paired with the phase-contrast image on its right. […] It is obvious from Rows 2 and 3 that the MTTI-157 incorporated into the mES cells. […] By the next day (Day 1), the cells begin to merge forming clones, as expected, and the fluorescence is seen distributed within the clones with passage to other members of the cell cluster, i.e., the daughter cells. On Day 4, the cell clusters are now larger and more cells within the cluster appear to carry the fluorescence signal.

[2] = test system: LS174T cells; assay: Dye transfer: co-culture of dye labeled and unlabeled LS174T cells, flow cytometry; assay type: cell-based, human
Protocol: (§1) The human colon cancer cell line LS174T was used here as a model to identify the optimal dyes marker with minimal transfer to neighbor cells for cell tracking. A family of DiD dyes (Ex: 648 nm, Em: 667 nm) with variable lipophilic aliphatic tails (Cm/Cn here refer to lengths lipophilic aliphatic tails in the number of C atoms) were investigated: MT279 (C22/C3), MT280 (C22/C12), MT284 (C14/C3), MT285 (C14/C14), CN1012 (C20/C20), MTTI-157 without the DOTA (C22/C22). LS174T cells were cultured in minimal essential medium (MEM) with nonessential amino acids, 10% fetal bovine serum (FBS) and 1% penicillin/streptomycin at 37° C. in a humidified atmosphere with 5% CO2 and were passaged weekly.
LS174T cells were trypsinized, collected, and washed twice with MEM without serum and labeled with the six dyes according to the method described above. […] Study sets are described below. One (1) ml of the cell suspension was added rapidly to 1 ml of 2× working dye solution and immediately mixed by pipetting. […] Subsequently, the cells suspension was spun at 400 g for 10 min. […] The cell viability was determined by trypan blue staining. The dye labeled cells were co-cultured with an equal number of unlabeled cells under normal culture conditions. Samples were removed at 0 h, 24 h and 48 h after initiation of co-culture and fixed in 2% paraformaldehyde for flow cytometry analysis.

[3] = test system: LS174T cells; assay: Flow cytometry of LS174T cells labeled with MTTI-157: labeling efficiency under different conditions; assay type: cell-based, human; conditions: for labeling efficiency: Set 1, dye dissolved in ethanol
Protocol: The method for LS174T cells labeling with MTTI-157 was as described as before. Briefly, LS174T cells were trypsinized, collected, and washed twice with MEM without serum and then resuspended in Diluent C. Immediately, prior to staining; a 2× working dye stock solution in Diluent C was prepared. The cell suspension was added rapidly to an equal volume of the 2× working dye solution and immediately mixed by pipetting up. […] Subsequently, the cell suspension was spun at 400 g for 5 min. […] After labeling, the labeled cells were fixed in 2% paraformaldehyde and analyzed by flow cytometry.
MTTI-157 was dissolved in ethanol at the concentration of 2 μg/μL.
MTTI-157 was dissolved in DMSO at the concentration of 2 μg/μL.

[4] = test system: LS174T cells; assay: Optimization of dye concentrations: flow cytometry of LS174T cells labeled with six DiD dyes; assay type: cell-based, human
Protocol: as §1
Four working dye stock solutions were investigated. LS174T cells were trypsinized, collected, and washed twice with MEM without serum when the flask was 90% confluent. […] Immediately, prior to staining, 2× working dye stock solutions (1 μM, 4 μM, 10 μM or 20 μM) in Diluent C were prepared. Then 500 μl of cell suspension was added rapidly into 500 μl of 2× working dye and immediately mixed by pipetting. […] The labeled cells were fixed in 2% paraformaldehyde and analyzed by flow cytometry.

[5] = test system: Wild type mES cells BL/6; assay: Flow cytometry of BL/6 mES cells labeled with MTTI-157 (percent labeled cells); assay type: cell-based, mouse
Excerpt: Unlabeled BL/6 cells were used as a control.

Compound: CCCCCCCCCCCCCCCCCCCCCCN1C(=CC=CC=CC2=[N+](CCCCCCCCCCCCCCCCCCCCCC)c3ccc(CNC(=O)CN4CCN(CC(=O)O)CCN(CC(=O)O)CCN(CC(=O)O)CC4)cc3C2(C)C)C(C)(C)c2ccccc21.[I-] [MTTI-157]
- effects on cellular differentiation [1]: no obvious effects on cellular differentiation
- Percent of unlabeled cells incorporating dye from labeled cells compared to the value at 0 h ([2]; Set 1, 2 μM dye, 24 h of co-culture): 22.39%
- Percent of unlabeled cells incorporating dye from labeled cells compared to the value at 0 h ([2]; Set 1, 2 μM dye, 48 h of co-culture): 22.74%
- Percent of unlabeled cells incorporating dye from labeled cells compared to the value at 0 h ([2]; Set 2, 10 μM dye, 24 h): 22% and 22.17%
- Percent of unlabeled cells incorporating dye from labeled cells compared to the value at 0 h ([2]; Set 2, 10 μM dye, 48 h): 28% and 28.45%
- Percent of unlabeled cells incorporating dye from labeled cells compared to the value at 0 h ([2]; Set 3, 5 μM dye, 24 h): 6.93%
- Percent of unlabeled cells incorporating dye from labeled cells compared to the value at 0 h ([2]; Set 3, 5 μM dye, 48 h): 22.16%
- dye transfer to unlabeled cells (in words) ([2]; Set 4, 0.5 μM dye): dye transfer took place
- Percent of unlabeled cells incorporating dye from labeled cells compared to that at 0 h ([2]; Set 4, 0.5 μM dye, 24 h): 13.58%
- Percent of unlabeled cells incorporating dye from labeled cells compared to that at 0 h ([2]; Set 4, 0.5 μM dye, 48 h): 14.675%
- Percent of unlabeled cells incorporating dye from labeled cells compared to that at 0 h ([2]; Set 4, 2 μM dye, 24 h): 23.555%
- Percent of unlabeled cells incorporating dye from labeled cells compared to that at 0 h ([2]; Set 4, 2 μM dye, 48 h): 25.615%
- labeling efficiency ([3]; final dye concentration 10 μM): about 60%
- labeling efficiency ([3]; highest final dye concentration of 20 μM): about 70%
- % labeled cells in total cells by FACS ([3]; dye dissolved in DMSO, final dye 10 μM, final cells 10 ×10^7/ml, DMSO in 2x working dye stock 2%): 97.3%
- % labeled cells in total cells by FACS ([3]; dye dissolved in DMSO, final dye 20 μM, final cells 10 ×10^7/ml, DMSO in 2x working dye stock 4%): 97.9%
- % labeled cells in total cells by FACS ([3]; dye dissolved in DMSO, final dye 20 μM, final cells 20 ×10^7/ml, DMSO in 2x working dye stock 4%): 98.6%
- % labeled cells in total cells by FACS ([3]; dye dissolved in DMSO, final dye 40 μM, final cells 10 ×10^7/ml, DMSO in 2x working dye stock 8%): 99.2%
- % labeled cells in total cells by FACS ([3]; dye dissolved in DMSO, final dye 40 μM, final cells 20 ×10^7/ml, DMSO in 2x working dye stock 8%): 98.5%
- % labeled cells in total cells by FACS ([3]; dye dissolved in DMSO, final dye 80 μM, final cells 10 ×10^7/ml, DMSO in 2x working dye stock 16%): 99.5%
- % labeled cells in total cells by FACS ([3]; dye dissolved in ethanol, final dye 2 μM, final cells 1 ×10^7/ml, DMSO in 2x working dye stock 0%): 12.6%
- % labeled cells in total cells by FACS ([3]; dye dissolved in ethanol, final dye 2 μM, final cells 1 ×10^7/ml, DMSO in 2x working dye stock 2%): 23.7%
- % labeled cells in total cells by FACS ([3]; dye dissolved in ethanol, final dye 2 μM, final cells 10 ×10^7/ml, DMSO in 2x working dye stock 0%): 29.5%
- % labeled cells in total cells by FACS ([3]; dye dissolved in ethanol, final dye 10 μM, final cells 1 ×10^7/ml, DMSO in 2x working dye stock 0%): 62.7%
- % labeled cells in total cells by FACS ([3]; dye dissolved in ethanol, final dye 10 μM, final cells 1 ×10^7/ml, DMSO in 2x working dye stock 2%): 55.9%
- % labeled cells in total cells by FACS ([3]; dye dissolved in ethanol, final dye 10 μM, final cells 10 ×10^7/ml, DMSO in 2x working dye stock 0%): 57.9%
- % labeled cells in total cells by FACS ([3]; dye dissolved in ethanol, final dye 20 μM, final cells 1 ×10^7/ml, DMSO in 2x working dye stock 0%): 74.3%
- % labeled cells in total cells by FACS ([3]; dye dissolved in ethanol, final dye 20 μM, final cells 1 ×10^7/ml, DMSO in 2x working dye stock 2%): 71.1%
- % labeled cells in total cells by FACS ([3]; dye dissolved in ethanol, final dye 20 μM, final cells 10 ×10^7/ml, DMSO in 2x working dye stock 0%): 75.0%
- percent of cells labeled ([4]; dye concentration 0.5 μM): 71.5%
- percent of cells labeled ([4]; dye concentration 2 μM): 92.3%
- percent of cells labeled ([4]; dye concentration 5 μM): 98.6%
- percent of cells labeled ([4]; dye concentration 10 μM): 99.4%
- percent of labeled cells in total cells ([5]; 2 μM dye): 9.8%
- percent of labeled cells in total cells ([5]; 10 μM dye): 28.7%
- percent of labeled cells in total cells ([5]; 20 μM dye): 34%
